Starred links: 1 amine or outer side, 2 acyl side, 3 side chain; linkers in the order of their positions; H or OH if unused. Non-standard residues stand in square brackets, D forms with d. Residues, ends and D or L forms follow the SMILES beside them. Groups on a side chain read outwards from the residue. *: point of attachment. C20 diacid = O=C(O)CCCCCCCCCCCCCCCCCCC(=O)*; αMePhe(2-F) = C[C@](N)(Cc1ccccc1F)C(=O)O; γGlu = O=C(O)[C@H](CCC(=O)[*:2])N[*:1]; αMeF = C[C@](N)(Cc1ccccc1)C(=O)O; αMeL = CC(C)C[C@](C)(N)C(=O)O; AEEA = NCCOCCOCC(=O)O; Ac3c = NC1(C(=O)O)CC1; Aib = CC(C)(N)C(=O)O
What was measured:
Human GIP R = target: T1, Human GIP R (Homo sapiens, UniProt P48546); test: cAMP (HTRF) activity in CHO cells stably overexpressing GIP receptor; assay type: cell-based; conditions: for Human GIP R Rel. A (Relative Activity): EC50 of human GIP / EC50 of compound; for EC50: stable transfected cell cAMP activity, at least 3 independent tests
T1 construct: expressed in transfected cells; host or cells: CHO
T1 sequence (P48546 22-466): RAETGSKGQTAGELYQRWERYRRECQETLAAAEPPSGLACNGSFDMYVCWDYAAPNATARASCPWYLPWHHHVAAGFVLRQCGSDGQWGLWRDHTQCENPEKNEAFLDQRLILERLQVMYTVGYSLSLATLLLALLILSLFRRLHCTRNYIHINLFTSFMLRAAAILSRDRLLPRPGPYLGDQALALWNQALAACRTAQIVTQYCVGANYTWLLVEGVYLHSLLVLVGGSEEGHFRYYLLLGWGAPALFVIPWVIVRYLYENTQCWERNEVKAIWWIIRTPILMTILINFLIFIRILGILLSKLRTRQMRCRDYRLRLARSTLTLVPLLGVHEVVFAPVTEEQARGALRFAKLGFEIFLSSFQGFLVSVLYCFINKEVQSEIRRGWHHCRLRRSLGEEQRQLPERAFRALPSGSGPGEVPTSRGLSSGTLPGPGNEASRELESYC
Description: (§1) By measuring the cAMP signal response levels of the aforementioned cells, the agonistic activity of individual compound towards the corresponding receptor was determined. The intracellular cAMP content was measured using reagent kit available from Cisbio Corp. based on HTRF (homogeneous time-resolved fluorescence) technology.
(§2) The cell fluid was transferred to 10 ml of HBSS for resuspension, and centrifuged at 1000 rpm for 5 minutes at room temperature.
(§3) 10 μL cell suspension was added to each well in the 384 well plate. […] Using the ECHO liquid transfer system, 100 nL of the prepared compound solution was added to the corresponding cell suspensions in the 384 well plate, rotated and shaken at 1000 rpm for 1 minute to mix evenly, and then incubated at room temperature for 60 minutes. 10 μL of detection reagent was added to each well after drug incubation was completed, and incubation was performed in the kit at room temperature for 60 minutes. […] GraphPad Prism 5 plotting software was used to create compound concentration response curves and EC50 (nM) values was calculated.

Human GCG R = target: T2, Human GCG R (Homo sapiens, UniProt P47871); test: cAMP (HTRF) activity in HEK-293 cells stably overexpressing human GCG receptor; assay type: cell-based; conditions: EC50 of human GCG / EC50 of compound
T2 construct: expressed in transfected cells; host or cells: HEK-293
Description: as §1, §2, §3

RIN-m5F cells = assay type: cell-based, rat; conditions: for Rel. A (Relative Activity) on RIN-m5F: relative to GLP-1(7-37)
Description: This experiment measured the cAMP level produced by the compound on RIN-mF cells.
Frozen […] cells were placed in a 37° C. constant temperature water bath for rapid thawing and recovery. The cell solution was transferred to 10 ml of HBSS for resuspension, and centrifuged at 1000 rpm for 5 minutes at room temperature.
(§4) 10 μL cell suspension was added to each well in the 384 well plate. […] Using the ECHO liquid transfer system, 100 nL of the prepared compound solution was added to the corresponding cell suspensions in the 384 well plate, rotated and shaken at 1000 rpm for 1 minute to mix evenly, and then incubated at room temperature for 60 minutes. 10 μL of detection reagent was added to each wells after drug incubation was completed, and incubation was performed for 60 minutes.

3T3-L1 adipocytes = conditions: for Rel. A (Relative Activity) on 3T3-L1 adipocyte: relative to GIP
Description: Mouse 3T3-L1 precursor adipocytes can be induced to differentiate into mature adipocytes. […] After the cells became full and contacted with each other, DMEM differentiation medium containing 20% FBS, 0.5 mM IBMX, 0.4 ug/mL dexamethasone, and 5 ug/mL insulin was used to induce differentiation of 3T3-L1 adipocyte. After 5 days of induction and cultivation, DMEM medium containing […], 4 ug/ml insulin, and 10 uM rosiglitazone was used to continue induction and cultivation for 3 days. Then, DMEM medium containing 10% FBS was used to continue cultivation for 2-3 days to induce mature 3T3-L1 adipocytes.
The cAMP level produced by the compound on 3T3-L1 adipocytes was determined in this experiment. The tested compound solution was diluted step by step according to a concentration gradient of 3 times, to obtain a total of 10 series of concentration solutions. The solutions were added to induced mature 3T3-L1 adipocytes and incubated at room temperature for 60 minutes. 10 μL detection reagent in the kit was added to each well after drug incubation, and incubated at room temperature for another 60 minutes. […] GraphPad Prism 5 plotting software was used to create compound concentration-effect curves and calculation was performed.

[1] = system: human primary liver cells; assay type: cell-based; conditions: for Rel. A (Relative Activity) on human primary liver cells: relative to GCG
Description: The cAMP levels produced by compounds on human primary liver cells were determined in this experiment. Human primary liver cells were purchased from Lonza (cell product number HUCPG).
Frozen human primary liver cells were placed in a 37° C. constant temperature water bath for rapid thawing and recovery. The cell solution was transferred to 10 ml of HBSS for resuspension, and centrifuged at 1000 rpm for 5 minutes at room temperature.
as §4, with “well” for “wells”

Human GLP-1R = Human GLP-1R (Homo sapiens, UniProt P43220); test: cAMP (HTRF) activity in HEK-293 cells stably overexpressing human GLP-1 receptor; assay type: cell-based; set-up: expressed in transfected cells; host or cells: HEK-293; conditions: for Human GLP-1R Rel. A (Relative Activity): EC50 of human GLP-1 (7-37) / EC50 of compound; for EC50: stable transfected cell cAMP activity, at least 3 independent tests
Description: as §1, §2, §3

Human GLP-1R, sequence (P43220 24-463): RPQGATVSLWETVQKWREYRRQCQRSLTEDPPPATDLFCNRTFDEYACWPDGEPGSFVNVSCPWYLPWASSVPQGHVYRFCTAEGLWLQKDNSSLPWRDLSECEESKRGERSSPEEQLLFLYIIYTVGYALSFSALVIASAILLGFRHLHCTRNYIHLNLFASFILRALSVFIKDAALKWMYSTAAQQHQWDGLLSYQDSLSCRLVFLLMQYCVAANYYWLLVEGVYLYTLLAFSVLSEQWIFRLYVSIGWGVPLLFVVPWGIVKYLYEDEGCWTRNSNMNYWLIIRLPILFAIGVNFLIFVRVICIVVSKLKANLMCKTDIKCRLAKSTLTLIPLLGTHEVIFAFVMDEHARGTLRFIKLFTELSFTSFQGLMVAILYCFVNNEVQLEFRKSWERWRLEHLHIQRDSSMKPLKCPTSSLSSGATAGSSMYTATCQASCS
T2 sequence (P47871 26-477): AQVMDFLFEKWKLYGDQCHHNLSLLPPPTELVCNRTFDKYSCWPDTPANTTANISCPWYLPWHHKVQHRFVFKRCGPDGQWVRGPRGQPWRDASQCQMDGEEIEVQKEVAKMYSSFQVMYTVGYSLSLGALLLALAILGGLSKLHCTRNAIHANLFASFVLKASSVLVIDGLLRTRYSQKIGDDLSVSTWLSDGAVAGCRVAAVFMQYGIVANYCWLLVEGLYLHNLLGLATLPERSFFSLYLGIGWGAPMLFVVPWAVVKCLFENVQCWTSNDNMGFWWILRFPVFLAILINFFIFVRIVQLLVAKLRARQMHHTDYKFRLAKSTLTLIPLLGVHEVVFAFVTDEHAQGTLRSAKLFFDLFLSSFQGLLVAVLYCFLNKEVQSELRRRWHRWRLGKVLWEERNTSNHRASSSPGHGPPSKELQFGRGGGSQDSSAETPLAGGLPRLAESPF

Human GIP R Rel. A (Relative Activity) (Human GIP R) | EC50 (Human GIP R) | Human GCG R Rel. A (Relative Activity) (Human GCG R) | EC50 (RIN-m5F cells) | EC50 [1] | Human GLP-1R Rel. A (Relative Activity) (Human GLP-1R) | EC50 (Human GLP-1R) | SMILES | Rel. A (Relative Activity) on RIN-m5F (RIN-m5F cells) | EC50 (3T3-L1 adipocytes) | Rel. A (Relative Activity) on 3T3-L1 adipocyte (3T3-L1 adipocytes) | Rel. A (Relative Activity) on human primary liver cells [1]
1206.67% | 15 pM | 32.95% | 878 pM | 7820 pM | 220.00% | 20 pM | CC[C@H](C)[C@H](NC(=O)[C@H](Cc1ccccc1)NC(=O)[C@H](C)NC(=O)C(C)(C)NC(=O)[C@H](CCC(N)=O)NC(=O)[C@H](C)NC(=O)[C@H](CCCCNC(=O)COCCOCCNC(=O)COCCOCCNC(=O)CC[C@H](NC(=O)CCCCCCCCCCCCCCCCCCC(=O)O)C(=O)O)NC(=O)[C@H](CCCCN)NC(=O)[C@H](CC(=O)O)NC(=O)[C@H](CC(C)C)NC(=O)[C@](C)(CC(C)C)NC(=O)[C@@H](NC(=O)[C@H](CO)NC(=O)[C@H](Cc1ccc(O)cc1)NC(=O)[C@H](CC(=O)O)NC(=O)[C@H](CO)NC(=O)[C@@H](NC(=O)[C@](C)(Cc1ccccc1)NC(=O)[C@@H](NC(=O)CNC(=O)[C@H](CCC(N)=O)NC(=O)C(C)(C)NC(=O)[C@@H](N)Cc1ccc(O)cc1)[C@@H](C)O)[C@@H](C)O)[C@@H](C)CC)C(=O)N[C@@H](CCC(=O)O)C(=O)N[C@@H](Cc1ccccc1)C(=O)N[C@@H](CC(C)C)C(=O)N[C@@H](CC(C)C)C(=O)N[C@@H](CCC(=O)O)C(=O)N[C@H](C(=O)NC(C)(C)C(=O)N1CCC[C@H]1C(=O)N[C@@H](CO)C(=O)N[C@@H](CO)C(=O)NCC(=O)N[C@@H](C)C(=O)N1CCC[C@H]1C(=O)N1CCC[C@H]1C(=O)NC1(C(=O)N[C@@H](CO)C(N)=O)CC1)[C@@H](C)O [Compound 30] (H-Y[Aib]QGT[αMeF]TSDYSI[αMeL]LDKK([AEEA-AEEA-γGlu-C20 diacid])AQ[Aib]AFIEFLLET[Aib]PSSGAPP[Ac3c]S-NH2; N-terminus assumed) | 117.54% | 7080 pM | 53.67% | 49.73%
2262.50% | 8 pM | 36.77% | 717 pM | 4190 pM | 231.58% |  | CC[C@H](C)[C@H](NC(=O)[C@H](Cc1ccccc1)NC(=O)[C@H](C)NC(=O)C(C)(C)NC(=O)[C@H](CCC(N)=O)NC(=O)[C@H](C)NC(=O)[C@H](CCCCNC(=O)COCCOCCNC(=O)COCCOCCNC(=O)CC[C@H](NC(=O)CCCCCCCCCCCCCCCCCCC(=O)O)C(=O)O)NC(=O)[C@H](CCCCN)NC(=O)[C@H](CC(=O)O)NC(=O)[C@H](CC(C)C)NC(=O)[C@](C)(CC(C)C)NC(=O)[C@@H](NC(=O)[C@H](CO)NC(=O)[C@H](Cc1ccc(O)cc1)NC(=O)[C@H](CC(=O)O)NC(=O)[C@H](CO)NC(=O)[C@@H](NC(=O)[C@](C)(Cc1ccccc1)NC(=O)[C@@H](NC(=O)CNC(=O)[C@H](CCC(N)=O)NC(=O)C(C)(C)NC(=O)[C@@H](N)Cc1ccc(O)cc1)[C@@H](C)O)[C@@H](C)O)[C@@H](C)CC)C(=O)N[C@@H](CCC(=O)O)C(=O)N[C@@H](Cc1ccccc1)C(=O)N[C@@H](CC(C)C)C(=O)N[C@@H](CC(C)C)C(=O)N[C@@H](CCC(=O)O)C(=O)N[C@@H](CO)C(=O)N[C@@H](Cc1c[nH]cn1)C(=O)N1CCC[C@H]1C(=O)N[C@@H](CO)C(=O)N[C@@H](CO)C(=O)NC(C)(C)C(=O)N[C@@H](Cc1c[nH]cn1)C(=O)N1CCC[C@H]1C(=O)N1CCC[C@H]1C(=O)NC1(C(=O)N[C@@H](CO)C(N)=O)CC1 [Compound 33] (H-Y[Aib]QGT[αMeF]TSDYSI[αMeL]LDKK([AEEA-AEEA-γGlu-C20 diacid])AQ[Aib]AFIEFLLESHPSS[Aib]HPP[Ac3c]S-NH2; N-terminus assumed) | 143.93% | 3300 pM | 115.21% | 92.93%
3620.00% | 5 pM | 150.00% | 879 pM | 537 pM | 191.30% | 23 pM | CC[C@H](C)[C@H](NC(=O)[C@H](Cc1ccccc1)NC(=O)[C@H](C)NC(=O)C(C)(C)NC(=O)[C@H](CCC(N)=O)NC(=O)[C@H](C)NC(=O)[C@H](CCCCNC(=O)COCCOCCNC(=O)COCCOCCNC(=O)CC[C@H](NC(=O)CCCCCCCCCCCCCCCCCCC(=O)O)C(=O)O)NC(=O)[C@H](CCCCN)NC(=O)[C@H](CC(=O)O)NC(=O)[C@H](CC(C)C)NC(=O)[C@](C)(CC(C)C)NC(=O)[C@@H](NC(=O)[C@H](CO)NC(=O)[C@H](Cc1ccc(O)cc1)NC(=O)[C@H](CC(=O)O)NC(=O)[C@H](CO)NC(=O)[C@@H](NC(=O)[C@](C)(Cc1ccccc1F)NC(=O)[C@@H](NC(=O)CNC(=O)[C@H](CCC(N)=O)NC(=O)C(C)(C)NC(=O)[C@@H](N)Cc1ccc(O)cc1)[C@@H](C)O)[C@@H](C)O)[C@@H](C)CC)C(=O)N[C@@H](CCC(=O)O)C(=O)N[C@@H](Cc1ccc(O)cc1)C(=O)N[C@@H](CC(C)C)C(=O)N[C@@H](CC(C)C)C(=O)N[C@@H](CCC(=O)O)C(=O)N[C@H](C(=O)NCC(=O)N1CCC[C@H]1C(=O)N[C@@H](CO)C(=O)N[C@@H](CO)C(=O)NCC(=O)N[C@@H](CCC(N)=O)C(=O)N1CCC[C@H]1C(=O)N1CCC[C@H]1C(=O)NC1(C(=O)N[C@@H](CO)C(N)=O)CC1)[C@@H](C)O [Compound 34] (H-Y[Aib]QGT[αMePhe(2-F)]TSDYSI[αMeL]LDKK([AEEA-AEEA-γGlu-C20 diacid])AQ[Aib]AFIEYLLETGPSSGQPP[Ac3c]S-NH2; N-terminus assumed) | 117.41% | 2300 pM | 165.52% | 724.58%

— patent US20250129135A1, “Multi-Agonist and Use Thereof” (priority 2021, published 2025)
